This passage reports IC50 results from publication PMC5421785, “Citrullination only infrequently impacts peptide binding to HLA class II MHC” (PLoS ONE, 2017).

One assay has as its target T1, HLA-DRB1*01:01 (Homo sapiens, UniProt P01903+P01911, A100R/D57E/F55L/F60I/F76Y/I96L/L162R/M171V/P40L/Q125E/R42F/V115G/Y59C).
T1 construct: EBV transformed homozygous cell lines were used as sources of MHC molecules; endogenous in cells; host or cells: EBV transformed homozygous cell lines
Kind of assay: HLA class II peptide binding, inhibition of radiolabeled peptide binding to purified MHC.

The next assay concerns the target T2, HLA-DRB1*04:01 (Homo sapiens, UniProt P01903+P01911, A100K/A169T/F76Y/I96L/K127E/L162R/M171V/N62H/P40V/Q125Y/R42H/S133A/S149N/S66Y/V115G/V209L/W38E).
T2 construct: EBV transformed homozygous cell lines were used as sources of MHC molecules; endogenous in cells; host or cells: EBV transformed homozygous cell lines
The description is as above.

The mark [1] stands for this setting: citrullinated 15-mer peptide (X = citrulline), purified HLA-DRB1*01:01, read-out: DRB1*01:01 binding capacity, Cit peptide (IC50 nM).
[2] abbreviates: citrullinated 15-mer peptide (X = citrulline), purified HLA-DRB1*04:01, read-out: DRB1*04:01 binding capacity, Cit peptide (IC50 nM).
[3] abbreviates: citrullinated 15-mer (X), purified MHC, inhibition of radiolabeled peptide binding, dash = IC50 >40,000 nM, read-out: DRB1*01:01 binding capacity, Cit peptide (IC50 nM).
Setting [4] is: citrullinated 15-mer (X), purified MHC, inhibition of radiolabeled peptide binding, dash = IC50 >40,000 nM, read-out: DRB1*04:01 binding capacity, Cit peptide (IC50 nM).
The mark [5] stands for this setting: citrullinated peptide as listed (X at Cit position), read-out: DRB1*01:01 binding capacity Cit peptide (IC50 nM).
[6] abbreviates: value of the wild-type (non-citrullinated) counterpart of the listed peptide, read-out: DRB1*01:01 binding capacity WT peptide (IC50 nM).
Where [7] appears, read: citrullinated peptide as listed (X at Cit position), read-out: DRB1*04:01 binding capacity Cit peptide (IC50 nM).

Read-outs that look alike come from different tables or passages of the source. Square brackets hold non-standard residues; d marks the D form. Peptide text beside a SMILES is read from it. Cit = NC(=O)NCCC[C@H](N)C(=O)O Where only a bound is given, the exact number is not on record here.

For the compound `N=C(N)NCCC[C@H](NC(=O)[C@H](CCC(=O)O)NC(=O)CNC(=O)[C@H](CCCNC(N)=O)NC(=O)[C@@H]1CCCN1C(=O)CN)C(=O)NCC(=O)N[C@@H](Cc1ccccc1)C(=O)N1CCC[C@H]1C(=O)NCC(=O)N[C@@H](CCC(=O)O)C(=O)N[C@@H](CCCNC(=N)N)C(=O)NCC(=O)N[C@@H](CO)C(=O)N1CCC[C@H]1C(=O)O` [GPXGERGFPGERGSP] (H-GP[Cit]GERGFPGERGSP-OH), the IC50 (in general, the midpoint of a concentration-inhibition curve) at HLA-DRB1*01:01 (setting [1]) is 23400 nM; at HLA-DRB1*04:01 (setting [2]) it was above 40000 nM.

`CC(C)C[C@H](NC(=O)[C@H](C)NC(=O)[C@H](CO)NC(=O)CN)C(=O)N[C@@H](CCCNC(=N)N)C(=O)N1CCC[C@H]1C(=O)N[C@@H](CO)C(=O)N[C@H](C(=O)N[C@@H](CO)C(=O)N[C@@H](CCCNC(N)=O)C(=O)N[C@@H](CO)C(=O)N[C@@H](CC(C)C)C(=O)N[C@@H](Cc1ccc(O)cc1)C(=O)N[C@@H](C)C(=O)N[C@@H](CO)C(=O)O)[C@@H](C)O` [GSALRPSTSXSLYAS]: the IC50 at HLA-DRB1*01:01 (setting [3]) is 25 nM; at HLA-DRB1*04:01 (setting [4]), 803 nM.

For `CC(C)C[C@H](NC(=O)[C@H](C)NC(=O)[C@H](CO)NC(=O)CN)C(=O)N[C@@H](CCCNC(N)=O)C(=O)N1CCC[C@H]1C(=O)N[C@@H](CO)C(=O)N[C@H](C(=O)N[C@@H](CO)C(=O)N[C@@H](CCCNC(=N)N)C(=O)N[C@@H](CO)C(=O)N[C@@H](CC(C)C)C(=O)N[C@@H](Cc1ccc(O)cc1)C(=O)N[C@@H](C)C(=O)N[C@@H](CO)C(=O)O)[C@@H](C)O` [GSALXPSTSRSLYAS], the IC50 at HLA-DRB1*01:01 (setting [3]) was 12 nM; on HLA-DRB1*04:01 (setting [4]), 1550 nM.

As for `CC(C)C[C@H](NC(=O)[C@H](CO)NC(=O)[C@H](Cc1ccccc1)NC(=O)[C@H](CC(=O)O)NC(=O)[C@@H](NC(=O)[C@H](CO)NC(=O)[C@H](CC(=O)O)NC(=O)[C@H](CCC(N)=O)NC(=O)[C@H](CC(C)C)NC(=O)[C@H](CC(C)C)NC(=O)[C@H](CCCNC(N)=O)NC(=O)[C@@H](NC(=O)CN)C(C)C)C(C)C)C(=O)N[C@@H](C)C(=O)N[C@@H](CC(=O)O)C(=O)O` [GVXLLQDSVDFSLAD], the 50% inhibitory concentration (IC50) on HLA-DRB1*01:01 (setting [3]) stood at 541 nM; at HLA-DRB1*04:01 (setting [4]), 918 nM.

In the case of `CC[C@H](C)[C@H](N)C(=O)N[C@@H](CC(=O)O)C(=O)N[C@H](C(=O)N[C@@H](CC(=O)O)C(=O)N[C@H](C(=O)N[C@@H](CO)C(=O)N[C@@H](CCCCN)C(=O)N1CCC[C@H]1C(=O)N[C@@H](CC(=O)O)C(=O)N[C@@H](CC(C)C)C(=O)N[C@H](C(=O)N[C@@H](C)C(=O)N[C@@H](C)C(=O)N[C@@H](CC(C)C)C(=O)N[C@@H](CCCNC(N)=O)C(=O)O)[C@@H](C)O)C(C)C)C(C)C` [IDVDVSKPDLTAALX] (H-IDVDVSKPDLTAAL[Cit]-OH), the values for the IC50 on HLA-DRB1*01:01 (setting [3]) and on HLA-DRB1*04:01 (setting [4]) were 935 nM and 23500 nM, respectively.

For the compound `CC[C@H](C)[C@H](N)C(=O)N[C@@H](CCCNC(=N)N)C(=O)N[C@@H](C)C(=O)N[C@@H](CCC(=O)O)C(=O)NCC(=O)N[C@@H](CC(N)=O)C(=O)N[C@@H](CO)C(=O)N[C@@H](CCCNC(N)=O)C(=O)N[C@@H](Cc1ccccc1)C(=O)N[C@H](C(=O)N[C@@H](Cc1ccc(O)cc1)C(=O)N[C@H](C(=O)N[C@@H](C)C(=O)N[C@@H](CC(C)C)C(=O)N[C@@H](CCCCN)C(=O)O)[C@@H](C)O)[C@@H](C)O` [IRAEGNSXFTYTALK] (H-IRAEGNS[Cit]FTYTALK-OH), the IC50 at HLA-DRB1*01:01 (setting [5]) came to 0.6 nM; on HLA-DRB1*01:01 (setting [6]) it was 1.3 nM; at HLA-DRB1*04:01 (setting [7]), 849 nM.

On to `CC[C@H](C)[C@H](N)C(=O)N[C@@H](CO)C(=O)N[C@@H](CC(C)C)C(=O)N1CCC[C@H]1C(=O)N[C@@H](CC(C)C)C(=O)N1CCC[C@H]1C(=O)N[C@@H](CC(N)=O)C(=O)N[C@@H](Cc1ccccc1)C(=O)N[C@@H](CO)C(=O)N[C@@H](CO)C(=O)N[C@@H](CC(C)C)C(=O)N[C@@H](CC(N)=O)C(=O)N[C@@H](CC(C)C)C(=O)N[C@@H](CCCNC(N)=O)C(=O)N[C@@H](CCC(=O)O)C(=O)O` [ISLPLPNFSSLNLXE], for which the IC50 amounted to 309 nM at HLA-DRB1*01:01 (setting [1]) and 4480 nM at HLA-DRB1*04:01 (setting [2]).

In the case of `CC[C@H](C)[C@H](N)C(=O)N[C@@H](CCCNC(N)=O)C(=O)N[C@@H](C)C(=O)N[C@@H](CCC(=O)O)C(=O)NCC(=O)N[C@@H](CC(N)=O)C(=O)N[C@@H](CO)C(=O)N[C@@H](CCCNC(=N)N)C(=O)N[C@@H](Cc1ccccc1)C(=O)N[C@H](C(=O)N[C@@H](Cc1ccc(O)cc1)C(=O)N[C@H](C(=O)N[C@@H](C)C(=O)N[C@@H](CC(C)C)C(=O)N[C@@H](CCCCN)C(=O)O)[C@@H](C)O)[C@@H](C)O` [IXAEGNSRFTYTALK] (H-I[Cit]AEGNSRFTYTALK-OH), the IC50 on HLA-DRB1*01:01 (setting [5]) was 0.62 nM; at HLA-DRB1*01:01 (setting [6]), 1.3 nM; at HLA-DRB1*04:01 (setting [7]), 2310 nM; at HLA-DRB1*04:01 (value of the wild-type (non-citrullinated) counterpart of the listed peptide, read-out: DRB1*04:01 binding capacity WT peptide (IC50 nM)), 794 nM.
